The text below walks through data of ChEMBL document CHEMBL1135890, “Structure-activity relationships of 2'-fluoro-2',3'-unsaturated D-nucleosides as anti-HIV-1 agents” (J Med Chem, 2002).

As a reminder, the EC50 is the midpoint of the concentration-response curve. The term IC50 denotes the concentration that gives 50% inhibition. The half-life is the time needed for the level to fall by half in the phase considered.

Data set [1] is described as follows: Anti-HIV activity against human peripheral blood mononuclear (PBM) cell lines infected with M184V Pitt (FTC resistant isolate). It counts as functional.
Data set [2] in a line: (§1) Toxicity against human peripheral blood mononuclear (PBM) cells.
Data set [3] has as its system Vero. Put plainly: (§2) Cytotoxicity against Vero cells was determined. It counts as cell-based. Particulars: Chlorocebus sabaeus.
Data set [4] concerns CCRF-CEM. Put plainly: Cytotoxicity against CEM cells. The data set is classed as cell-based, Homo sapiens.
The test system of data set [5] is Human immunodeficiency virus 1. Put plainly: Anti-HIV activity was determined. It counts as functional, organism-based.
The nature of data set [6]: Anti-HIV activity against human peripheral blood mononuclear (PBM) cell lines infected with XxBRU Pitt (FTC sensitive isolate). The data set is classed as functional.
Data set [7] has as its system Vero. The data set is described as §2. Particulars: Chlorocebus sabaeus. It counts as functional, cell-based.
Data set [8] has as its system CCRF-CEM. Put plainly: Cytotoxicity against CEM cells was determined. Particulars: Homo sapiens. The data set is classed as functional, cell-based.
The nature of data set [9]: Half life was determined. It counts as ADME.
A short description of data set [10]: as §1. The data set is classed as functional.
A short description of data set [11]: Half life at pH 2.0. It counts as ADME. Particulars: buffer.
[12] abbreviates: human, peripheral blood mononuclear (PBM) cells, IC50.

`Nc1nc(O)c2ncn([C@@H]3O[C@H](CO)C=C3F)c2n1` (stereo in doubt; 18) registered an EC50 in data set [1] of 11.2 µM.

On to `Nc1nc(O)c2ncn([C@@H]3O[C@H](CO)C=C3F)c2n1` (stereo in doubt; 19), for which the concentration for half-maximal inhibition (IC50) in [2] (setting [12]) was > 100 µM; with Vero [3], > 100 µM; with CCRF-CEM [4] (Homo sapiens, CCRF-CEM), > 100 µM. The compound also showed an EC50 in data set [5] of 18.3 µM.

Consider `Nc1nc(N)c2ncn([C@@H]3O[C@@H](CO)C=C3F)c2n1`, for which the concentration for half-maximal inhibition (IC50) in [2] (setting [12]) is > 100 µM; in the data set with Vero [3], > 100 µM; in the data set on CCRF-CEM [4] (Homo sapiens, CCRF-CEM) it was > 100 µM. In [5] (Human immunodeficiency virus 1), the 50% effective concentration (EC50) was > 100 µM.

Turning to `Nc1nc(Cl)c2ncn([C@@H]3O[C@H](CO)C=C3F)c2n1` (stereo in doubt; 11), the half-inhibitory concentration (IC50) in [2] was 98.8 µM; in the data set with CCRF-CEM [4] (ccrf-cem) it was > 100 µM. Moreover, the concentration giving a half-maximal response (EC50) in data set [5] came to 4.3 µM.

As for `Cc1cn([C@H]2C[C@H](N=[N+]=[N-])[C@@H](CO)O2)c(=O)[nH]c1=O` [ZIDOVUDINE], the EC50 in data set [1] amounted to 0.004 µM; in data set [6], 0.005 µM. In data set [2] (setting [12]), the IC50 is > 100 µM.

Take `Nc1ncnc2c1ncn2[C@@H]1O[C@H](CO)C=C1F` (stereo in doubt; 14): the results for the half-maximal effective concentration (EC50) in [1], in [5] and in data set [6] were 0.8 µM, 0.44 µM and 0.46 µM, respectively. For the same compound, the IC50 is > 100 µM in the data set with Vero [7], 57.6 µM in the data set on CCRF-CEM [8] and 68.3 µM in data set [10]. The results for the half-life in data set [9] and in data set [11] were 41.6 min and 72 h, respectively.

In the case of `OC[C@@H]1C=C(F)[C@H](n2cnc3c(O)ncnc32)O1`, the results for the 50% effective concentration (EC50) in data set [1], in [5] (Human immunodeficiency virus 1) and in data set [6] were 2.5 µM, 1 µM and 2.8 µM, respectively. Also, the IC50 in data set [2] (setting [12]) is 92.7 µM; in the data set with Vero [3], 87.7 µM; in the data set with CCRF-CEM [4] (Homo sapiens, CCRF-CEM), > 100 µM.

`Nc1ccn([C@@H]2O[C@H](CO)C=C2F)c(=O)n1` (stereo in doubt; 28): the values for the IC50 (in data set [2]; in the data set with CCRF-CEM [4] (ccrf-cem)) were 7.3 µM and 35.3 µM, respectively. Besides, the EC50 in [5] turned out to be 2.6 µM.

As to `Nc1nc(N)c2ncn([C@@H]3O[C@H](CO)C=C3F)c2n1`, the 50% inhibitory concentration (IC50) was > 100 µM in [2] (setting [12]); > 100 µM with Vero [3]; > 100 µM with CCRF-CEM [4] (Homo sapiens, CCRF-CEM). This compound also yielded an EC50 in data set [5] (Human immunodeficiency virus 1) of 3 µM.

`Nc1nc(=O)n([C@@H]2O[C@H](CO)C=C2F)cc1F` (stereo in doubt; 30): the 50% effective concentration (EC50) was determined as 9.61 µM in data set [1], 0.82 µM in data set [5] and 3.1 µM in data set [6]. Moreover, the 50% inhibitory concentration (IC50) in data set [2] (setting [12]) is > 100 µM; in the data set with Vero [3], > 100 µM; in the data set with CCRF-CEM [4] (Homo sapiens, CCRF-CEM), > 100 µM.

Take `Nc1ncnc2c1ncn2[C@@H]1O[C@H](CO)C=C1F` (stereo in doubt; 15): the concentration for half-maximal inhibition (IC50) in [2] (setting [12]) is > 100 µM; with Vero [3] it was > 100 µM; with CCRF-CEM [4] (Homo sapiens, CCRF-CEM), > 100 µM. Also, the EC50 in data set [5] was > 100 µM.

In the case of `Nc1nc(F)nc2c1ncn2[C@H]1O[C@H](CO)C=C1F`, the 50% inhibitory concentration (IC50) worked out at 41.2 µM in data set [2] (setting [12]); 16.1 µM in the data set with Vero [3]; 28.3 µM in the data set on CCRF-CEM [4] (Homo sapiens, CCRF-CEM). Further, the half-maximal effective concentration (EC50) in data set [5] (Human immunodeficiency virus 1) was 3.97 µM.

For `Nc1ncnc2c1ncn2[C@@H]1O[C@H](CO)[C@@H](O)[C@H]1O` [ADENOSINE], the half-life in data set [9] was 0.417 min.

As to `Nc1nc(Cl)c2ncn([C@@H]3O[C@H](CO)C=C3F)c2n1` (stereo in doubt; 13), the IC50 in data set [2] (setting [12]) is 77.4 µM; in the data set on Vero [3], > 100 µM; in the data set on CCRF-CEM [4] (ccrf-cem) it was 30.2 µM. The EC50 in data set [5] was > 75 µM.

In the case of `Nc1nc(=O)n([C@@H]2O[C@H](CO)C=C2F)cc1F` (stereo in doubt; 31), in [5], the half-maximal effective concentration (EC50) is > 100 µM.

In the case of `Nc1nc(F)nc2c1ncn2[C@@H]1O[C@H](CO)C=C1F`, the IC50 is > 100 µM in data set [2] (setting [12]); > 100 µM in the data set with Vero [3]; > 100 µM in the data set with CCRF-CEM [4] (Homo sapiens, CCRF-CEM). Besides, in [5] (Human immunodeficiency virus 1), the EC50 is > 100 µM.

Turning to `Cc1cn([C@@H]2O[C@H](CO)C=C2F)c(=O)nc1N`, the half-maximal inhibitory concentration (IC50) in [2] (setting [12]) was > 100 µM; in the data set on Vero [3], > 100 µM; in the data set on CCRF-CEM [4] (Homo sapiens, CCRF-CEM), > 100 µM. Also, in data set [5] (Human immunodeficiency virus 1), the EC50 is > 100 µM.

For the compound `OC[C@@H]1C=C(F)[C@@H](n2cnc3c(O)ncnc32)O1`, the 50% inhibitory concentration (IC50) in [2] (setting [12]) is > 100 µM; in the data set on Vero [3], > 100 µM; with CCRF-CEM [4] (Homo sapiens, CCRF-CEM), > 100 µM. The EC50 in [5] (Human immunodeficiency virus 1) is > 100 µM.

Consider `Nc1ccn([C@@H]2O[C@H](CO)C=C2F)c(=O)n1` (stereo in doubt; 29), for which the IC50 (in data set [2]; in the data set with Vero [3]; with CCRF-CEM [4] (ccrf-cem)) was > 100 µM throughout. Further, in data set [5], the concentration giving a half-maximal response (EC50) was > 100 µM.
